For eleven molecules, inhibition results are on record in ChEMBL document CHEMBL3259580, “New compounds from acid hydrolyzed products of the fruits of Momordica charantia L. and their inhibitory activity against protein tyrosine phosphatas 1B” (Eur J Med Chem, 2014).

Usually inhibition stands for the change of the read-out against control, counted positive when it falls.

In assay [1] the target is T1, Tyrosine-protein phosphatase non-receptor type 1 (Homo sapiens) (UniProt P18031).
T1 sequence (whole entry): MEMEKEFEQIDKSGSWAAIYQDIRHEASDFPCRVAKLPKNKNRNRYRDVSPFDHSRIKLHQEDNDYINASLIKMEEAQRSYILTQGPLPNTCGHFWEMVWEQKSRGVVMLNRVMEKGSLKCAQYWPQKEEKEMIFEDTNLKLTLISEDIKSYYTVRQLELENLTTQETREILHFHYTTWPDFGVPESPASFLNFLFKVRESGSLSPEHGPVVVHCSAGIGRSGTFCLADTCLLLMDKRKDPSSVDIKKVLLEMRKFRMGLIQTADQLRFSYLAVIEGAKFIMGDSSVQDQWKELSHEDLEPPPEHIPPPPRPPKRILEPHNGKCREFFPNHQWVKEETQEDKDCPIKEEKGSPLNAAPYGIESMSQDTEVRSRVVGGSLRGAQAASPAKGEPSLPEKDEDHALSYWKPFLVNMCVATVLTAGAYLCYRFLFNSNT
As to the kind of experiment: Inhibition of PTP1B (unknown origin) using para-nitro phenyl phosphate as substrate at 10 uM after 30 mins.

Assay [2] deals with T1, Tyrosine-protein phosphatase non-receptor type 1 (Homo sapiens). Description: Inhibition of PTP1B (unknown origin) using para-nitro phenyl phosphate as substrate at 30 uM after 30 mins.
Assay [3] addresses Tyrosine-protein phosphatase non-receptor type 1 (Homo sapiens) (UniProt P18031). Description: Inhibition of PTP1B (unknown origin) using para-nitro phenyl phosphate as substrate at 20 uM after 30 mins.

Turning to `C=C(C)/C=C/C[C@@H](C)[C@H]1CC[C@@]2(C)[C@@H]3C=C[C@@]45O[C@@H](OC)[C@]3(CC[C@]12C)[C@@H]4CC[C@H](O)C5(C)C`, the inhibition came to 41% in assay [1] and 60% in assay [2]. `CO[C@@H]1O[C@@]23C=C[C@@H]4[C@]1(CC[C@@]1(C)[C@@H]([C@@H](C)C[C@H](C=C(C)C)OC)CC[C@]41C)[C@@H]2CC[C@H](O)C3(C)C`: the inhibition in assay [1] is 44%; in assay [2] it was 62%. On the same counts, the results for `C=C(C)/C=C/C[C@@H](C)[C@H]1CC[C@@]2(C)[C@@H]3C=C[C@@]45O[C@@H](O)[C@]3(CC[C@]12C)[C@@H]4CC[C@H](O)C5(C)C` are 44% and 68%.

In the case of `CO[C@H]1O[C@@]23C=C[C@@H]4[C@]1(CC[C@@]1(C)[C@@H]([C@@H](C)C[C@H](C=C(C)C)OC)CC[C@]41C)[C@@H]2CC[C@H](O)C3(C)C`, the inhibition came out at 57% in assay [1] and 77% in assay [2]. On the same counts, the results for `CO[C@@H]1O[C@]23C=C[C@@H]4[C@@]1(CC[C@]1(C)[C@@H]([C@H](C)C[C@H](C=C(C)C)OC)CC[C@@]41C)[C@@H]2CC[C@H](O)C3(C)C` are 32% and 40%. With `CO[C@@H]1O[C@]23C=C[C@@H]4[C@@]1(CC[C@]1(C)[C@@H]([C@H](C)C/C=C/C(C)(C)O)CC[C@@]41C)[C@@H]2CC[C@H](O)C3(C)C`, the inhibition in assay [1] was -7%. Regarding `C[C@H](C/C=C/C(C)(C)O)[C@H]1CC[C@@]2(C)[C@@H]3C=C[C@@]45OC[C@]3(CC[C@]12C)[C@@H]4CC[C@H](O)C5(C)C`, the inhibition in assay [1] was 30%; in assay [2], 52%.

As to `C[C@H](C/C=C/C(C)(C)O)[C@H]1CC[C@@]2(C)[C@@H]3[C@@H](O)C=C4[C@@H](CC[C@H](O)C4(C)C)[C@]3(C=O)CC[C@]12C`, the inhibition in assay [1] is -5%. Consider SODIUM ORTHOVANAD, for which the inhibition in assay [3] stood at 44%.

Take `CO[C@H]1O[C@]23C=C[C@@H]4[C@@]1(CC[C@]1(C)[C@@H]([C@H](C)C[C@H](C=C(C)C)OC)CC[C@@]41C)[C@@H]2CC[C@H](O)C3(C)C`: the inhibition in assay [1] was 32%; in assay [2] it was 62%. Take `CO[C@@H]1O[C@]23C=C[C@@H]4[C@@]1(CC[C@]1(C)[C@@H]([C@H](C)C/C=C/C(C)(C)OC)CC[C@@]41C)[C@@H]2CC[C@H](O)C3(C)C`: the inhibition in assay [1] worked out at 22%; in assay [2] it was 37%.
